# Columns and labels:
# Test in all cases: Post-emergence glasshouse spray test, visual percentage phytotoxicity after 13 days
# Type in all cases: in vivo
# Lolium perenne (LOLPE) = conditions: for LOLPE percentage phytotoxicity: B1
# Experimental: (§1) Seeds of Setaria faberi (SETFA), Echinochloa crus-galli (ECHCG), Digitaria sanguinalis (DIGSA), Lolium perenne (LOLPE), Alopecurus myosuroides (ALOMY), Chenopodium album (CHEAL), Ipomoea hederacea (IPOHE), Stellaria media (STEME), Abutilon threophrasti (ABUTH), Amaranthus retroflexus (AMARE) were sown in standard sterilised soil in pots. After cultivation for 8 days under controlled conditions in a glasshouse (at 24/19° C., day/night; 16 hours light; no humidity control), the plants were sprayed at 500 l/Ha with an aqueous spray solution derived from the formulation of the technical active ingredients in a small amount of acetone and a solvent and emulsifier mixture referred to as IF50 (11.12% Emulsogen EL360™+44.44% N-methylpyrrolidone+44.44% Dowanol DPM glycol ether), to create a 50 g/l solution which was then diluted using 0.2% Genapol XO80 (CAS Number: 9043-30-5) as diluent to give the desired final dose of test compound.
# (§2) Where active ingredients were applied as mixtures, aqueous spray solutions were prepared as above, containing both active ingredients.
# (§3) The test plants were then grown under controlled conditions in a glasshouse (at 24/18° C., day/night; 15 hours light; 50% humidity) and watered twice daily. After 13 days, the test was evaluated visually for percentage phytotoxicity to the plants (where 100=total damage to plant; 0=no damage to plant; and NC=not captured) when compared to control untreated plants. Two to four replicates were applied for each treatment in a randomised block test design.
# (§4) 22., E=X+Y−(X*Y/100), where
# (§5) X=average percent phytotoxicity of herbicide A when applied at a certain rate Y=average percent phytotoxicity using herbicide B when applied at a certain rate E=the expected effect of the mixture of herbicides A and B as calculated from the Colby formula.
# [1] = test system: Ipomoea hederacea (IPOHE); conditions: for IPOHE percentage phytotoxicity: B1
# Experimental: as §1, §2, §3, §4, §5
# [2] = test system: Chenopodium album (CHEAL); conditions: B1
# Experimental: as §1, §2, §3, §4, §5
# Stellaria media (STEME) = conditions: for STEME percentage phytotoxicity: B1
# Experimental: as §1, §2, §3, §4, §5
# [3] = test system: Alopecurus myosuroides (ALOMY); conditions: B1
# Experimental: as §1, §2, §3, §4, §5
# [4] = test system: Digitaria sanguinalis (DIGSA); conditions: for DIGSA percentage phytotoxicity: B1; for Observed phytotoxicity DIGSA: B2.6.2
# Experimental: as §1, §2, §3, §4, §5
# [5] = test system: Amaranthus retroflexus (AMARE); conditions: B1
# Experimental: as §1, §2, §3, §4, §5
# Setaria faberi (SETFA) = conditions: for SETFA percentage phytotoxicity: B1; for Observed phytotoxicity SETFA: B2.6.1
# Experimental: as §1, §2, §3, §4, §5
# [6] = test system: Abutilon threophrasti (ABUTH); conditions: B1
# Experimental: as §1, §2, §3, §4, §5
structure (smiles),measurement,setting,value
Nc1c(F)c(-c2ccc3cc[nH]c3c2F)nc(C(=O)O)c1Cl [B-VI],LOLPE percentage phytotoxicity,Lolium perenne (LOLPE); 0.625 g/ha post-emergence,0%
same,LOLPE percentage phytotoxicity,Lolium perenne (LOLPE); 1.25 g/ha post-emergence,0%
same,LOLPE percentage phytotoxicity,Lolium perenne (LOLPE); 2.5 g/ha post-emergence,0%
same,LOLPE percentage phytotoxicity,Lolium perenne (LOLPE); 5 g/ha post-emergence,8%
same,LOLPE percentage phytotoxicity,Lolium perenne (LOLPE); 10 g/ha post-emergence,8%
same,Observed phytotoxicity LOLPE,"Lolium perenne (LOLPE); B2.6.3, 5 g/ha post-emergence",8%
same,IPOHE percentage phytotoxicity,[1]; 0.625 g/ha post-emergence,13%
same,IPOHE percentage phytotoxicity,[1]; 1.25 g/ha post-emergence,35%
same,IPOHE percentage phytotoxicity,[1]; 2.5 g/ha post-emergence,38%
same,IPOHE percentage phytotoxicity,[1]; 5 g/ha post-emergence,48%
same,IPOHE percentage phytotoxicity,[1]; 10 g/ha post-emergence,50%
same,Observed phytotoxicity IPOHE,"[1]; B2.6.4, 2.5 g/ha post-emergence",38%
same,CHEAL percentage phytotoxicity,[2]; 0.625 g/ha post-emergence,58%
same,CHEAL percentage phytotoxicity,[2]; 1.25 g/ha post-emergence,73%
same,CHEAL percentage phytotoxicity,[2]; 2.5 g/ha post-emergence,75%
same,CHEAL percentage phytotoxicity,[2]; 5 g/ha post-emergence,94%
same,CHEAL percentage phytotoxicity,[2]; 10 g/ha post-emergence,84%
same,STEME percentage phytotoxicity,Stellaria media (STEME); 0.625 g/ha post-emergence,78%
same,STEME percentage phytotoxicity,Stellaria media (STEME); 1.25 g/ha post-emergence,50%
same,STEME percentage phytotoxicity,Stellaria media (STEME); 2.5 g/ha post-emergence,65%
same,STEME percentage phytotoxicity,Stellaria media (STEME); 5 g/ha post-emergence,98%
same,STEME percentage phytotoxicity,Stellaria media (STEME); 10 g/ha post-emergence,90%
same,Observed phytotoxicity STEME,"Stellaria media (STEME); B2.6.5, 1.25 g/ha post-emergence",50%
same,ALOMY percentage phytotoxicity,[3]; 0.625 g/ha post-emergence,0%
same,ALOMY percentage phytotoxicity,[3]; 1.25 g/ha post-emergence,0%
same,ALOMY percentage phytotoxicity,[3]; 2.5 g/ha post-emergence,0%
same,ALOMY percentage phytotoxicity,[3]; 5 g/ha post-emergence,33%
same,ALOMY percentage phytotoxicity,[3]; 10 g/ha post-emergence,30%
same,DIGSA percentage phytotoxicity,[4]; 0.625 g/ha post-emergence,0%
same,DIGSA percentage phytotoxicity,[4]; 1.25 g/ha post-emergence,0%
same,DIGSA percentage phytotoxicity,[4]; 2.5 g/ha post-emergence,0%
same,DIGSA percentage phytotoxicity,[4]; 5 g/ha post-emergence,8%
same,DIGSA percentage phytotoxicity,[4]; 10 g/ha post-emergence,43%
same,Observed phytotoxicity DIGSA,[4]; 0.625 g/ha post-emergence,0%
same,Observed phytotoxicity DIGSA,[4]; 1.25 g/ha post-emergence,0%
same,Observed phytotoxicity DIGSA,[4]; 5 g/ha post-emergence,8%
same,AMARE percentage phytotoxicity,[5]; 0.625 g/ha post-emergence,58%
same,AMARE percentage phytotoxicity,[5]; 1.25 g/ha post-emergence,65%
same,AMARE percentage phytotoxicity,[5]; 2.5 g/ha post-emergence,73%
same,AMARE percentage phytotoxicity,[5]; 5 g/ha post-emergence,95%
same,AMARE percentage phytotoxicity,[5]; 10 g/ha post-emergence,90%
same,SETFA percentage phytotoxicity,Setaria faberi (SETFA); 0.625 g/ha post-emergence,0%
same,SETFA percentage phytotoxicity,Setaria faberi (SETFA); 1.25 g/ha post-emergence,0%
same,SETFA percentage phytotoxicity,Setaria faberi (SETFA); 2.5 g/ha post-emergence,0%
same,SETFA percentage phytotoxicity,Setaria faberi (SETFA); 5 g/ha post-emergence,48%
same,SETFA percentage phytotoxicity,Setaria faberi (SETFA); 10 g/ha post-emergence,70%
same,Observed phytotoxicity SETFA,Setaria faberi (SETFA); 0.625 g/ha post-emergence,0%
same,Observed phytotoxicity SETFA,Setaria faberi (SETFA); 1.25 g/ha post-emergence,0%
same,ABUTH percentage phytotoxicity,[6]; 0.625 g/ha post-emergence,38%
same,ABUTH percentage phytotoxicity,[6]; 1.25 g/ha post-emergence,55%
same,ABUTH percentage phytotoxicity,[6]; 2.5 g/ha post-emergence,73%
same,ABUTH percentage phytotoxicity,[6]; 5 g/ha post-emergence,78%
same,ABUTH percentage phytotoxicity,[6]; 10 g/ha post-emergence,78%
